Patent US20240238423A9, “TETRAHYDROISOQUINOLINE HETEROBIFUNCTIONAL BCL-XL DEGRADERS” (Treeline Biosciences, Inc., priority 2022, published 2024)
Where two headings read alike, the source gives them in different places.

Target: T1, Human BCL-XL protein (N-terminal HiBiT tagged BCL-XL in HT1080 cells) (Homo sapiens, UniProt Q07817)
T1 construct: expressed in transfected cells; host or cells: HT-1080 (ATCC CCL-121), stably transduced with lentivirus pLV-UBC-N-HiBiT-BCL-XL-PGK-puro and selected with puromycin
T1 sequence (Q07817 whole entry): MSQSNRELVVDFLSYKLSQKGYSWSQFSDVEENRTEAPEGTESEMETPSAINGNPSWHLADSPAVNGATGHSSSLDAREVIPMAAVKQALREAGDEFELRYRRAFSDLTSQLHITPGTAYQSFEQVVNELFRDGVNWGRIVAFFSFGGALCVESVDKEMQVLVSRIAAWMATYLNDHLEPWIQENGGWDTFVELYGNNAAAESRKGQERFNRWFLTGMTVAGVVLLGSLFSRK
Experiment: HiBiT based degradation assay
Assay type: cell-based
Conditions: HT1080 cells expressing HiBiT-BCL-XL; for Ymin (24 h) / Ymin (6 h): BCL-XL degradation normalized with DMSO control; for DC50: BCL-XL degradation
Summary of the method: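 This HiBiT degradation assay measured loss of BCL-XL in HT1080 cells that stably express an N-terminal HiBiT-BCL-XL fusion delivered by lentivirus. Cells were added to compound-spotted 384-well plates, and luminescence was read on a PHERAstar FSX reader. Signal was expressed relative to DMSO controls, curves were fitted by four-parameter logistic regression, and for hook-shaped curves the Ymin point served as the bottom plateau when calculating EC50.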

Row | Ymin (24 h) | DC50 (24 h, read-out: EC50 (24 h)) [nM] | Ymin (6 h) | DC50 (6 h, read-out: EC50 (6 h)) [nM] | Compound
1 | A (Ymin < 50%) | < 100 |  |  | Cc1c(OCCC2CCN(CCN3CCN(c4ccc5c(C6CCC(=O)NC6=O)nn(C)c5c4)CC3)CC2)cccc1-c1ccc(N2CCc3cccc(C(=O)Nc4nc5ccccc5s4)c3C2)nc1C(=O)O (stereo not drawn) [Compound 232, 6-[8-(1,3-benzothiazol-2-ylcarbamoyl)-3,4-dihydro-1H-isoquinolin-2-yl]-3-[3-[2-[1-[2-[4-[3-(2,6-dioxo-3-piperidyl)-1-methyl-indazol-6-yl]piperazin-1-yl]ethyl]-4-piperidyl]ethoxy]-2-methyl-phenyl]pyridine-2-carboxylic acid]
2 | A (Ymin < 50%) | < 100 |  |  | Cc1c(OCCC2CCN(CCN3CCN(c4cccc5c(C6CCC(=O)NC6=O)nn(C)c45)CC3)CC2)cccc1-c1ccc(N2CCc3cccc(C(=O)Nc4nc5ccccc5s4)c3C2)nc1C(=O)O (stereo not drawn) [Compound 233, 6-[8-(1,3-benzothiazol-2-ylcarbamoyl)-3,4-dihydro-1H-isoquinolin-2-yl]-3-[3-[2-[1-[2-[4-[3-(2,6-dioxo-3-piperidyl)-1-methyl-indazol-7-yl]piperazin-1-yl]ethyl]-4-piperidyl]ethoxy]-2-methyl-phenyl]pyridine-2-carboxylic acid]
3 | B (50% ≤ Ymin < 70%) | < 100 | C (Ymin ≥ 70%) | 100 to 1000 | Cc1c(Oc2ccc(CC(F)(F)CN3CCN(c4ccc5c(C6CCC(=O)NC6=O)nn(C)c5c4)CC3)cc2)cccc1-c1ccc(N2CCc3cccc(C(=O)Nc4nc5ccccc5s4)c3C2)nc1C(=O)O (stereo not drawn) [Compound 234, 6-[8-(1,3-benzothiazol-2-ylcarbamoyl)-3,4-dihydro-1H-isoquinolin-2-yl]-3-[3-[4-[3-[4-[3-(2,6-dioxo-3-piperidyl)-1-methyl-indazol-6-yl]piperazin-1-yl]-2,2-difluoro-propyl]phenoxy]-2-methyl-phenyl]pyridine-2-carboxylic acid]
4 | B (50% ≤ Ymin < 70%) | < 100 | B (50% ≤ Ymin < 70%) | < 100 | Cc1cc(OCCCC2CCN(CC(=O)Nc3cccc4c(C5CCC(=O)NC5=O)nn(C)c34)CC2)ccc1-c1ccc(N2CCc3cccc(C(=O)Nc4nc5ccccc5s4)c3C2)nc1C(=O)O (stereo not drawn) [Compound 236, 6-(8-(Benzo[d]thiazol-2-ylcarbamoyl)-3,4-dihydroisoquinolin-2(1H)-yl)-3-(4-(3-(1-(2-((3-(2,6-dioxopiperidin-3-yl)-1-methyl-1H-indazol-7-yl)amino)-2-oxoethyl)piperidin-4-yl)propoxy)-2-methylphenyl)picolinic acid]
5 |  |  | A (Ymin < 50%) | < 100 | Cc1c(OCCCCCCCCCN2CCN(c3cccc4c(C5CCC(=O)NC5=O)nn(C)c34)CC2)cccc1-c1ccc(N2CCc3cccc(C(=O)Nc4nc5ccccc5s4)c3C2)nc1C(=O)O (stereo not drawn) [Compound 237, 6-[8-(1,3-benzothiazol-2-ylcarbamoyl)-3,4-dihydro-1H-isoquinolin-2-yl]-3-[3-[9-[4-[3-(2,6-dioxo-3-piperidyl)-1-methyl-indazol-7-yl]piperazin-1-yl]nonoxy]-2-methyl-phenyl]pyridine-2-carboxylic acid]
6 | B (50% ≤ Ymin < 70%) | < 100 | B (50% ≤ Ymin < 70%) | < 100 | Cc1c(OCCOC2CCN(CC(=O)Nc3ccc4c(C5CCC(=O)NC5=O)nn(C)c4c3)CC2)cccc1-c1ccc(N2CCc3cccc(C(=O)Nc4nc5ccccc5s4)c3C2)nc1C(=O)O (stereo not drawn) [Compound 238, 6-(8-(benzo[d]thiazol-2-ylcarbamoyl)-3,4-dihydroisoquinolin-2(1H)-yl)-3-(3-(2-((1-(2-((3-(2,6-dioxopiperidin-3-yl)-1-methyl-1H-indazol-6-yl)amino)-2-oxoethyl)piperidin-4-yl)oxy)ethoxy)-2-methylphenyl)picolinic acid]
7 | B (50% ≤ Ymin < 70%) | < 100 |  |  | Cc1c(O[C@H]2CC[C@H](CC(F)(F)C(=O)N3CCN(c4ccc5c(C6CCC(=O)NC6=O)nn(C)c5c4)CC3)CC2)cccc1-c1ccc(N2CCc3cccc(C(=O)Nc4nc5ccccc5s4)c3C2)nc1C(=O)O (stereo partly drawn) [Compound 239a, 6-(8-(benzo[d]thiazol-2-ylcarbamoyl)-3,4-dihydroisoquinolin-2(1H)-yl)-3-(3-(((1r,4r)-4-(3-(4-(3-(2,6-dioxopiperidin-3-yl)-1-methyl-1H-indazol-6-yl)piperazin-1-yl)-2,2-difluoro-3-oxopropyl)cyclohexyl)oxy)-2-methylphenyl)picolinic acid]
8 | B (50% ≤ Ymin < 70%) | < 100 |  |  | Cc1c(OCCC[C@@H]2CCN(CC(=O)Nc3cccc4c(C5CCC(=O)NC5=O)nn(C)c34)C2)cccc1-c1ccc(N2CCc3cccc(C(=O)Nc4nc5ccccc5s4)c3C2)nc1C(=O)O (stereo partly drawn) [Compound 240a, 6-[8-(1,3-benzothiazol-2-ylcarbamoyl)-3,4-dihydro-1H-isoquinolin-2-yl]-3-[3-[3-[(3R)-1-[2-[[3-(2,6-dioxo-3-piperidyl)-1-methyl-indazol-7-yl]amino]-2-oxo-ethyl]pyrrolidin-3-yl]propoxy]-2-methyl-phenyl]pyridine-2-carboxylic acid]
9 | B (50% ≤ Ymin < 70%) | < 100 |  |  | Cc1c(OCCC[C@H]2CCN(CC(=O)Nc3cccc4c(C5CCC(=O)NC5=O)nn(C)c34)C2)cccc1-c1ccc(N2CCc3cccc(C(=O)Nc4nc5ccccc5s4)c3C2)nc1C(=O)O (stereo partly drawn) [Compound 240b, 6-(8-(benzo[d]thiazol-2-ylcarbamoyl)-3,4-dihydroisoquinolin-2(1H)-yl)-3-(3-(3-((3S)-1-(2-((3-(2,6-dioxopiperidin-3-yl)-1-methyl-1H-indazol-7-yl)amino)-2-oxoethyl)pyrrolidin-3-yl)propoxy)-2-methylphenyl)picolinic acid]
10 | B (50% ≤ Ymin < 70%) | < 100 |  |  | Cc1c(Oc2ccc(CCN3CCN(c4cccc5c(C6CCC(=O)NC6=O)nn(C)c45)CC3)cc2)cccc1-c1ccc(N2CCc3cccc(C(=O)Nc4nc5ccccc5s4)c3C2)nc1C(=O)O (stereo not drawn) [Compound 241, 6-[8-(1,3-benzothiazol-2-ylcarbamoyl)-3,4-dihydro-1H-isoquinolin-2-yl]-3-[3-[4-[2-[4-[3-(2,6-dioxo-3-piperidyl)-1-methyl-indazol-7-yl]piperazin-1-yl]ethyl]phenoxy]-2-methyl-phenyl]pyridine-2-carboxylic acid]
11 | C (Ymin ≥ 70%) | < 100 | C (Ymin ≥ 70%) | 1000 to 10000 | Cc1cc(OCCCN2CCN(CC(=O)Nc3cccc4c(C5CCC(=O)NC5=O)nn(C)c34)CC2)ccc1-c1ccc(N2CCc3cccc(C(=O)Nc4nc5ccccc5s4)c3C2)nc1C(=O)O (stereo not drawn) [Compound 242, 6-[8-(1,3-benzothiazol-2-ylcarbamoyl)-3,4-dihydro-1H-isoquinolin-2-yl]-3-[4-[3-[4-[2-[[3-(2,6-dioxo-3-piperidyl)-1-methyl-indazol-7-yl]amino]-2-oxo-ethyl]piperazin-1-yl]propoxy]-2-methyl-phenyl]pyridine-2-carboxylic acid]
12 | B (50% ≤ Ymin < 70%) | < 100 | C (Ymin ≥ 70%) | 100 to 1000 | Cc1c(Oc2ccccc2CCC(=O)Nc2cccc3c(C4CCC(=O)NC4=O)nn(C)c23)cccc1-c1ccc(N2CCc3cccc(C(=O)Nc4nc5ccccc5s4)c3C2)nc1C(=O)O (stereo not drawn) [Compound 243, 6-(8-(benzo[d]thiazol-2-ylcarbamoyl)-3,4-dihydroisoquinolin-2(1H)-yl)-3-(3-(2-(3-((3-(2,6-dioxopiperidin-3-yl)-1-methyl-1H-indazol-7-yl)amino)-3-oxopropyl)phenoxy)-2-methylphenyl)picolinic acid]
13 | B (50% ≤ Ymin < 70%) | < 100 | C (Ymin ≥ 70%) | 1000 to 10000 | Cc1c(Oc2ccc(CCC(=O)N3CCN(c4ccc5c(C6CCC(=O)NC6=O)nn(C)c5c4)CC3)cc2)cccc1-c1ccc(N2CCc3cccc(C(=O)Nc4nc5ccccc5s4)c3C2)nc1C(=O)O (stereo not drawn) [Compound 244, 6-(8-(benzo[d]thiazol-2-ylcarbamoyl)-3,4-dihydroisoquinolin-2(1H)-yl)-3-(3-(4-(3-(4-(3-(2,6-dioxopiperidin-3-yl)-1-methyl-1H-indazol-6-yl)piperazin-1-yl)-3-oxopropyl)phenoxy)-2-methylphenyl)picolinic acid]
14 | B (50% ≤ Ymin < 70%) | < 100 |  |  | Cc1c(OCCCN2CCN(CC(=O)Nc3ccc4c(C5CCC(=O)NC5=O)nn(C)c4c3)C[C@@H]2C(F)(F)F)cccc1-c1ccc(N2CCc3cccc(C(=O)Nc4nc5ccccc5s4)c3C2)nc1C(=O)O (stereo partly drawn) [Compound 245a, 6-(8-(benzo[d]thiazol-2-ylcarbamoyl)-3,4-dihydroisoquinolin-2(1H)-yl)-3-(3-(3-((2R)-4-(2-((3-(2,6-dioxopiperidin-3-yl)-1-methyl-1H-indazol-6-yl)amino)-2-oxoethyl)-2-(trifluoromethyl)piperazin-1-yl)propoxy)-2-methylphenyl)picolinic acid]

Row | Compound | Ymin (24 h) | DC50 (24 h, read-out: EC50 (24 h)) [nM] | Ymin (6 h) | DC50 (6 h, read-out: EC50 (6 h)) [nM]
15 | Cc1c(OCCCCN2CCC(CN3CCN(c4ccc5c(C6CCC(=O)NC6=O)nn(C)c5c4)CC3)CC2)cccc1-c1ccc(N2CCc3cccc(C(=O)Nc4nc5ccccc5s4)c3C2)nc1C(=O)O (stereo not drawn) [Compound 235, 6-[8-(1,3-benzothiazol-2-ylcarbamoyl)-3,4-dihydro-1H-isoquinolin-2-yl]-3-[3-[4-[4-[[4-[3-(2,6-dioxo-3-piperidyl)-1-methyl-indazol-6-yl]piperazin-1-yl]methyl]-1-piperidyl]butoxy]-2-methyl-phenyl]pyridine-2-carboxylic acid] | A (Ymin < 50%) | < 100 |  | 
